Data: patent US20240239781A1, “1H-PYRAZOLE DERIVATIVES AS SIGMA LIGANDS” (ACONDICIONAMIENTO TARRASENSE, priority 2021, published 2024)

Key:
[1] = molecular target: T1, human σ2/TMEM97 receptor (Homo sapiens, UniProt Q5BJF2); assay: Binding assay to human σ2/TMEM97 receptor ([3H]-DTG, transfected HEK-293 membranes); details: class scale, read-out: Binding σ-2 Ki
T1 construct: expressed in transfected cells; host or cells: HEK-293
Method: Transfected HEK-293 membranes (15 μg) were incubated with 10 nM [^3H]-1,3-Di-o-tolylguanidine (DTG) in assay buffer containing Tris-HCl 50 mM at pH 8.0. NSB (non-specific binding) was measured by adding 10 μM haloperidol. The binding of the test compound was measured at either one concentration (% inhibition at 1 or 10 μM) or five different concentrations to determine affinity values (Ki). Plates were incubated at 25° C. for 120 minutes. After the incubation period, the reaction mix was transferred to MultiScreen HTS, FC plates (Millipore), filtered and washed 3 times with ice-cold 10 mM Tris-HCL (pH 8.0). Filters were dried and counted at approximately 40% efficiency in a MicroBeta scintillation counter (Perkin-Elmer) using EcoScint liquid scintillation cocktail.

[2] = molecular target: T2, human σ1 receptor (Homo sapiens, UniProt Q99720); assay: Human σ1 receptor radioligand assay ([3H](+)-pentazocine, transfected HEK-293 membranes); details: class scale, read-out: Binding σ-1 Ki
T2 construct: expressed in transfected cells; host or cells: HEK-293
Method: Transfected HEK-293 membranes (7 μg) were incubated with 5 nM of [^3H](+)-pentazocine in assay buffer containing Tris-HCl 50 mM at pH 8. NBS (non-specific binding) was measured by adding 10 μM haloperidol. The binding of the test compound was measured at either one concentration (% inhibition at 1 or 10 μM) or five different concentrations to determine affinity values (Ki). Plates were incubated at 37° C. for 120 minutes. After the incubation period, the reaction mix was then transferred to MultiScreen HTS, FC plates (Millipore), filtered and plates were washed 3 times with ice-cold 10 mM Tris-HCL (pH7.4). Filters were dried and counted at approximately 40% efficiency in a MicroBeta scintillation counter (Perkin-Elmer) using EcoScint liquid scintillation cocktail.

T1 sequence (Q5BJF2 whole entry): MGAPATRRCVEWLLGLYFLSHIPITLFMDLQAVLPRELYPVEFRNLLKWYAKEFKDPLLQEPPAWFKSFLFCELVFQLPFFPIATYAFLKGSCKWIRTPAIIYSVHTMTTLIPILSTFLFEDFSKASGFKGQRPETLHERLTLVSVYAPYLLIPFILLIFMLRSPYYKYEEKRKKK
T2 sequence (Q99720 whole entry): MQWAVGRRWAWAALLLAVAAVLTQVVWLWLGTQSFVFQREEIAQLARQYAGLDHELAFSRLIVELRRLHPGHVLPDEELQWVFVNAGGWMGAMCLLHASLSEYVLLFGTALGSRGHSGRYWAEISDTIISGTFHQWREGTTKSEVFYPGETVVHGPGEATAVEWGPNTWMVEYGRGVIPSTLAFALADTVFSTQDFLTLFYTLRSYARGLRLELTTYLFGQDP

Structure (SMILES)	Ki [1] [µM]	Ki [2] [µM]
CCn1nc(-c2cc(C)on2)c(CC(=O)N2CCCC3(CCN(CCC(C)(C)C)CC3)C2)c1Cl [Example 217, 2-(5-Chloro-1-ethyl-3-(5-methylisoxazol-3-yl)-1H-pyrazol-4-yl)-1-(9-(3,3-dimethylbutyl)-2,9-diazaspiro[5.5]undecan-2-yl)ethan-1-one]	< 0.1	0.1 to 0.5
CCc1nc(C)c(-c2nn(C)c(Cl)c2C(=O)N2CCC3(CCN(CCC(C)(C)C)CC3)CC2)o1 [Example 176, (5-Chloro-3-(2-ethyl-4-methyloxazol-5-yl)-1-methyl-1H-pyrazol-4-yl)(9-(3,3-dimethylbutyl)-3,9-diazaspiro[5.5]undecan-3-yl)methanone]	< 0.1	> 1
Cn1nc(-c2cccc(C(F)(F)F)n2)c(CC(=O)NC2CCN(CCC(C)(C)C)CC2)c1Cl [Example 222, 2-(5-Chloro-1-methyl-3-(6-(trifluoromethyl)pyridin-2-yl)-1H-pyrazol-4-yl)-N-(1-(3,3-dimethylbutyl)piperidin-4-yl)acetamide]	< 0.1	< 0.1
Cc1cccc(-c2nn(C)c(Cl)c2C(=O)NC2CC3(CCN(CCC(C)(C)C)CC3)C2)n1 [Example 141, 5-Chloro-N-(7-(3,3-dimethylbutyl)-7-azaspiro[3.5]nonan-2-yl)-1-methyl-3-(6-methylpyridin-2-yl)-1H-pyrazole-4-carboxamide]	< 0.1	< 0.1
CCn1nc(-c2cccc(C)n2)c(C(=O)NC2CCC3(CC2)CCN(CCC(C)(C)C)CC3)c1Cl [Example 151, 5-Chloro-N-(3-(3,3-dimethylbutyl)-3-azaspiro[5.5]undecan-9-yl)-1-ethyl-3-(6-methylpyridin-2-yl)-1H-pyrazole-4-carboxamide]	< 0.1	< 0.1
CCn1nc(-c2ccon2)c(C(=O)N2CCC3(CCN(CCC(C)(C)C)CC3)CC2)c1Cl [Example 171, (5-Chloro-1-ethyl-3-(isoxazol-3-yl)-1H-pyrazol-4-yl)(9-(3,3-dimethylbutyl)-3,9-diazaspiro[5.5]undecan-3-yl)methanone]	< 0.1	0.1 to 0.5
Cn1ccc(-c2nn(C)c(Cl)c2C(=O)N2CCC3(CCN(CCC(C)(C)C)CC3)CC2)n1 [Example 181, (5-Chloro-1,1′-dimethyl-1H,1′H-[3,3′-bipyrazol]-4-yl)(9-(3,3-dimethylbutyl)-3,9-diazaspiro[5.5]undecan-3-yl)methanone]	0.1 to 0.5	> 1
CCn1nc(-c2cc(C)on2)c(C(=O)N2CCCC3(CN(CCC(C)(C)C)C3)C2)c1Cl [Example 194, (5-Chloro-1-ethyl-3-(5-methylisoxazol-3-yl)-1H-pyrazol-4-yl)(2-(3,3-dimethylbutyl)-2,6-diazaspiro[3.5]nonan-6-yl)methanone]	< 0.1	0.5 to 1
CCn1nc(-c2cc(C(C)C)on2)c(C(=O)N2CCCC3(CCN(CCC(C)(C)C)CC3)C2)c1Cl [Example 152, (5-Chloro-1-ethyl-3-(5-isopropylisoxazol-3-yl)-1H-pyrazol-4-yl)(9-(3,3-dimethylbutyl)-2,9-diazaspiro[5.5]undecan-2-yl)methanone]	< 0.1	0.1 to 0.5
Cc1cc(-c2nn(C)c(Cl)c2C(=O)N2CCC3(CCN(Cc4ccc(F)cc4)CC3)CC2)no1 [Example 129, (5-Chloro-1-methyl-3-(5-methylisoxazol-3-yl)-1H-pyrazol-4-yl)(9-(4-fluorobenzyl)-3,9-diazaspiro[5.5]undecan-3-yl)methanone]	< 0.1	0.1 to 0.5

Second part, the compound after the results:

Ki [1] [µM]	Ki [2] [µM]	Structure (SMILES)
0.1 to 0.5	> 1	Cc1cc(-c2nn(C)c(Cl)c2CN2CC[C@H](CNCCc3ccccc3)C2)no1 [Example 71, (R)-N-((1-((5-Chloro-1-methyl-3-(5-methylisoxazol-3-yl)-1H-pyrazol-4-yl)methyl)pyrrolidin-3-yl)methyl)-2-phenylethanamine]
> 1	0.1 to 0.5	Cc1cc(-c2nn(C)c(Cl)c2CN2CCC(CNCCC(C)(C)C)C2)no1 (centres unmarked) [Example 1, N-((1-((5-Chloro-1-methyl-3-(5-methylisoxazol-3-yl)-1H-pyrazol-4-yl)methyl)pyrrolidin-3-yl)methyl)-3,3-dimethylbutan-1-amine]
0.1 to 0.5	0.5 to 1	Cc1cc(-c2nn(C)c(Cl)c2CN2CCC(C3(NCCC(C)C)CC3)C2)no1 (centres unmarked) [Example 62, 1-(1-((5-Chloro-1-methyl-3-(5-methylisoxazol-3-yl)-1H-pyrazol-4-yl)methyl)pyrrolidin-3-yl)-N-isopentylcyclopropanamine]
< 0.1	0.1 to 0.5	CCCn1nc(-c2cc(C)on2)c(CN2CC3(CCN(CCC(C)(C)C)CC3)CC2=O)c1Cl [Example 226, 2-((5-Chloro-3-(5-methylisoxazol-3-yl)-1-propyl-1H-pyrazol-4-yl)methyl)-8-(3,3-dimethylbutyl)-2,8-diazaspiro[4.5]decan-3-one]
< 0.1	0.5 to 1	Cc1cc(-c2nn(C)c(Cl)c2C(=O)N2CCC3(CCN(CCC(C)(C)C)CC3)CC2)no1 [Example 88, (5-Chloro-1-methyl-3-(5-methylisoxazol-3-yl)-1H-pyrazol-4-yl)(9-(3,3-dimethylbutyl)-3,9-diazaspiro[5.5]undecan-3-yl)methanone]
< 0.1	0.1 to 0.5	Cc1cc(-c2nn(C)c(Cl)c2CN2CC[C@H](CNCCC(C)(C)C)C2)no1 [Example 74, (R)-N-((1-((5-chloro-1-methyl-3-(5-methylisoxazol-3-yl)-1H-pyrazol-4-yl)methyl)pyrrolidin-3-yl)methyl)-3,3-dimethylbutan-1-amine]
0.1 to 0.5	0.1 to 0.5	CCn1nc(-c2cc(C)on2)c(C(=O)NC2CCCN(CCC(C)(C)C)C2)c1Cl (centres unmarked) [Example 202, 5-Chloro-N-(1-(3,3-dimethylbutyl)piperidin-3-yl)-1-ethyl-3-(5-methylisoxazol-3-yl)-1H-pyrazole-4-carboxamide]
< 0.1	> 1	Cc1cc(-c2nn(C)c(Cl)c2CN2CCCC(NCCC(C)C)CC2)no1 (centres unmarked) [Example 24, 1-((5-Chloro-1-methyl-3-(5-methylisoxazol-3-yl)-1H-pyrazol-4-yl)methyl)-N-isopentylazepan-4-amine]
< 0.1	0.5 to 1	Cc1cc(-c2nn(C)c(Cl)c2C(=O)N2CCC3(CCN(CCC(C)(C)C)C3)CC2)no1 [Example 87, (5-Chloro-1-methyl-3-(5-methylisoxazol-3-yl)-1H-pyrazol-4-yl)(2-(3,3-dimethylbutyl)-2,8-diazaspiro[4.5]decan-8-yl)methanone]
< 0.1	0.1 to 0.5	Cc1cc(-c2nn(C)c(Cl)c2CC(=O)NC2CCC3(CC2)CCN(CCC(C)(C)C)CC3)no1 [Example 215, 2-(5-Chloro-1-methyl-3-(5-methylisoxazol-3-yl)-1H-pyrazol-4-yl)-N-(3-(3,3-dimethylbutyl)-3-azaspiro[5.5]undecan-9-yl)acetamide]
0.5 to 1	0.5 to 1	Cc1cc(-c2nn(C)c(Cl)c2CN2CCC(CNCC(C)C)CC2)no1 [Example 43, N-((1-((5-Chloro-1-methyl-3-(5-methylisoxazol-3-yl)-1H-pyrazol-4-yl)methyl)piperidin-4-yl)methyl)-2-methylpropan-1-amine]
> 1	0.5 to 1	CC(C)CCNC1CCCCN(Cc2c(-c3ccccn3)nn(C)c2Cl)C1 (centres unmarked) [Example 26, 1-((5-Chloro-1-methyl-3-(pyridin-2-yl)-1H-pyrazol-4-yl)methyl)-N-isopentylazepan-3-amine]
